{"source": "BindingDB's records for doi:10.1021/jm070645a", "about": "(Rockefeller University, 2007)", "molecular_target": "Mitogen-activated protein kinase 1 (Homo sapiens, UniProt P28482)", "sequence (P28482 whole entry)": "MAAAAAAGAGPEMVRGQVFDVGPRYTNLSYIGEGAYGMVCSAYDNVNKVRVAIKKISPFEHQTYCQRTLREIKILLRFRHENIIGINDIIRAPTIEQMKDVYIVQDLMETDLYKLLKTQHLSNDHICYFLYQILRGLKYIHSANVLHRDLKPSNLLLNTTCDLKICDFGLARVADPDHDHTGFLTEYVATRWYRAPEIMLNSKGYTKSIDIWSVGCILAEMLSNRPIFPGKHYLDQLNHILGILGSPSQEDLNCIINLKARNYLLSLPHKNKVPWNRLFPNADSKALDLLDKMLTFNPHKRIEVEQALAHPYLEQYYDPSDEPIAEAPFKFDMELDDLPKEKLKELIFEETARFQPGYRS", "experiment": "Radiological Kinase Inhibition Assay", "settings": "pH 7.5; 22 °C", "description": "Kinase activity was assayed for autophosphorylation and phosphorylation of MBP with radio-labeled gamma-32P. IC50 values were calculated from binding curves using LSW Data Analysis Tool Box version 1.1.1 in MicroSoft Excel."}
{"smiles": "O=C1NC(=O)C(=Cc2ccc(Sc3ccc(Cl)cc3)c([N+](=O)[O-])c2)C(=O)N1", "note": "[5-({4-[(4-chlorophenyl)sulfanyl]-3-nitrophenyl}methylidene)pyrimidine-2,4,6(1H,3H,5H)-trione]", "values": [{"measurement": "IC50", "value": 53, "unit": "µM"}]}
{"smiles": "O=C1c2ccccc2C(=O)c2cc(S(=O)(=O)Nc3cccc([N+](=O)[O-])c3)ccc21", "note": "[N-(3-nitrophenyl)-9,10-dioxo-9,10-dihydroanthracene-2-sulfonamide]", "values": [{"measurement": "IC50", "value": "> 200", "unit": "µM"}]}
